Test results taken from ChEMBL document CHEMBL1201862, “PubChem BioAssay data set” (2004).
Calls of active or inactive are those of the source.

Columns and labels:
Paired box protein Pax-8 = Paired box protein Pax-8 (Homo sapiens, UniProt Q06710); assay: PAX8 transcriptional activity inhibition in RMG-I – RMG-I cells, luciferase, cherry-pick, dose response (AID 687027); format: functional, cell-based;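 note: luciferase reporter driven by Pax8 target thyroperoxidase promoter measured by SteadyGlo luminescence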
[1] = IGROV1 cell killing – plate reader, dry powder samples, PAX8 inhibitor project, dose response (AID 743043); format: functional, cell-based; settings: IGROV-1
[2] = OVCAR8 cell viability loss – plate reader, dry powder samples, PAX8 project, dose response (AID 743197); format: functional, cell-based; settings: OVCAR-8
[3] = CMV-driven luciferase expression suppression in HEK293 – cell-based, luminescence, dry powder, counter-screen for Pax8 inhibitor project, dose response (AID 743020); format: functional
[4] = OVCAR-3 cell viability loss – plate reader, dry powder samples, PAX8 inhibitor project, dose response (AID 743044); format: functional, cell-based
[5] = A2780 cell killing – plate reader, dry powder samples, cytotoxicity control, dose response (AID 743046); format: functional, cell-based
Protein Wnt-3a = Protein Wnt-3a (Mus musculus, UniProt P27467); assay: SAR analysis of small molecule antagonists of Gli-SUFU in a Wnt3a luminescent reporter assay.; format: functional
[6] = HeLa cell viability loss – plate reader, dry powder, cytotoxicity control, dose response (AID 651946); format: functional, cell-based
A549 = assay: viability loss in A549 cells – cell-based, plate reader, cherry-pick samples, cytotoxicity control, dose response (AID 687028); format: functional; settings: Homo sapiens
[7] = HGIII-sPLA2 enzyme inhibition potency – biochemical, QFRET, IC50, dose response (AID 743457);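 note: green fluorescence rise as the enzyme cleaves BODIPY PC-A2 in liposomes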
HEK293 [8] = assay: cells; settings: Homo sapiens
HEK293 [9] = assay: cells; settings: Homo sapiens; remark: listed apart in the source
[10] = Late stage assay provider results from the probe development effort to identify selective inhibitors of heat shock protein 90 (HSP90): Absorbance-based cell proliferation assay in MCF7 cells.; format: functional
[11] = Late stage assay provider results from the probe development effort to identify selective inhibitors of heat shock protein 90 (HSP90): Absorbance-based cell proliferation assay in SKBR3 cells.; format: functional; settings: SK-BR-3
[12] = target: Fructose-bisphosphate aldolase (Mycobacterium tuberculosis, UniProt P9WQA3); assay: Fluorescence-based biochemical high throughput dose response assay for inhibitors of the fructose-bisphosphate aldolase (FBA) of M. tuberculosis.; format: functional
[13] = target: T1, Scavenger receptor class B member 1 (Mus musculus, UniProt Q61009); assay: blockers of DiI-HDL lipid transfer via SR-BI – cell-based, ldlA[mSR-BI] CHO, DiI fluorescence, dry powder, set 10, dose response (AID 624029); format: functional
T1 sequence (Q61009 whole entry): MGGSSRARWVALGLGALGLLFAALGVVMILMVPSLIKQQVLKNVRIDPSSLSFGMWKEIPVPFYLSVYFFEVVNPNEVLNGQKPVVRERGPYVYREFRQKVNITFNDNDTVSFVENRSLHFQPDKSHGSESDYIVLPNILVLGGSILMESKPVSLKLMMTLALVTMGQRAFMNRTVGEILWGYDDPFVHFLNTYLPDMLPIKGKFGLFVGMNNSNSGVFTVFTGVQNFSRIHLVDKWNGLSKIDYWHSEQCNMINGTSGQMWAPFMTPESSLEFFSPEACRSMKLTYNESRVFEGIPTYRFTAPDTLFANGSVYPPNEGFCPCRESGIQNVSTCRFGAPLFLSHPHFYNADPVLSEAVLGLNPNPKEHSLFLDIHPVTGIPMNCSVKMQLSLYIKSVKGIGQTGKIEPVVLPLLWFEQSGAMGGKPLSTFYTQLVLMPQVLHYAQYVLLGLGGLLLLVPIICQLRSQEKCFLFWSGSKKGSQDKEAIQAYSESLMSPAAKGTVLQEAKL

[14] = target: T1, Scavenger receptor class B member 1; assay: mouse SR-BI DiI-HDL transfer blockers – ldlA[mSR-BI] CHO cells, fluorescence plate reader, dry powder, set 9, dose response (AID 623880); format: functional, cell-based
[15] = cell viability loss, ATP luminescence – CellTiter-Glo, 24 h, powder samples, set 7, cytotoxicity control for SR-BI HDL uptake inhibitor project, dose response (AID 624026); format: functional, cell-based
[16] = Late stage assay provider results from the probe development effort to identify inhibitors of the Plasmodium falciparum M17 Leucine Aminopeptidase (M17LAP): radiolabel-based cell-based dose response assay to identify compounds that inhibit P. falciparum growth in RBCs Set 2.; format: functional

Chain of Paired box protein Pax-8 (Q06710 whole entry): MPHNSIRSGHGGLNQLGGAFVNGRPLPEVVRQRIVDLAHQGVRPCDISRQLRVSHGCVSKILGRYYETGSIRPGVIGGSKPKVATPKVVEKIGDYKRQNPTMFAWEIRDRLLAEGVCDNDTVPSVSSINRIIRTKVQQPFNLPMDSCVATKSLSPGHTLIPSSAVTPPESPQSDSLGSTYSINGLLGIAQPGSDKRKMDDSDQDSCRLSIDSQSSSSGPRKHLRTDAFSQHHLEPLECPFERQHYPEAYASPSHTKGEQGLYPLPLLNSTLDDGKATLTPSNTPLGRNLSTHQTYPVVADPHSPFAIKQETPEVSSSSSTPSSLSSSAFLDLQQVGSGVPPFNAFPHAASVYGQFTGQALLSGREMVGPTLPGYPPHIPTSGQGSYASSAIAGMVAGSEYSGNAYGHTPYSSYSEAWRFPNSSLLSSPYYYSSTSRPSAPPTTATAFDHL
Chain of Protein Wnt-3a (P27467 whole entry): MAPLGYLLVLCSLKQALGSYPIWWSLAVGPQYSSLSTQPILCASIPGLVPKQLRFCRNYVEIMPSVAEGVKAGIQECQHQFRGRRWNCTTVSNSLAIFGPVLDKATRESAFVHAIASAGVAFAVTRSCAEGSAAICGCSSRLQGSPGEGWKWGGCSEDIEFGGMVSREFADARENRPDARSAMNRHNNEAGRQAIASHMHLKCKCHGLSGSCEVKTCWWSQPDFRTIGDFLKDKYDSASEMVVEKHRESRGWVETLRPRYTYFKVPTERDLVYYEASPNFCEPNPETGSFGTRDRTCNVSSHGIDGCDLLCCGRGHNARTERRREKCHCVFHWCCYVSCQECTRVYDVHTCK
Chain of Fructose-bisphosphate aldolase (P9WQA3 whole entry): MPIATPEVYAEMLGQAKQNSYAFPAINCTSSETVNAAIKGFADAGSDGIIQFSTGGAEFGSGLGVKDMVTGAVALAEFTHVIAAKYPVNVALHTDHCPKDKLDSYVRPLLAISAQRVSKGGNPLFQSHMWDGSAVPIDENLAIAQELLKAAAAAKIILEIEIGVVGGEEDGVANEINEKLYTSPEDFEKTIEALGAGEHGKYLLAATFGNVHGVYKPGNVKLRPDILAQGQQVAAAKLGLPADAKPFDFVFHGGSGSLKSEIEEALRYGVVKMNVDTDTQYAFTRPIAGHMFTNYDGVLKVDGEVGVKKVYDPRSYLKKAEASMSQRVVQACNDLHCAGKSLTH

C[C@@H]1CCCCO[C@H](CN(C)Cc2ccc(C(F)(F)F)cc2)[C@@H](C)CN([C@@H](C)CO)C(=O)c2cc(NC(=O)Nc3ccc(F)cc3)ccc2O1
AC50 (Paired box protein Pax-8): 5.36 µM (active)
AC50 [1]: 43.6 µM (active)
AC50 [2]: 32.1 µM (active)
AC50 [3]: 35.7 µM (active)
AC50 [4]: 21.4 µM (active)
AC50 [5]: 51.7 µM (active)

COc1ccccc1C(=O)Nc1cc(N2CCCCC2)ncn1
IC50 (Protein Wnt-3a): > 21.8 µM (inactive)

FC(F)(F)Oc1ccccc1CSc1nnc(-c2ccccc2)o1
AC50 [6]: > 52 µM (inactive)

CCN(c1ccccc1)S(=O)(=O)c1ccc(OC)c(NC(=O)C2CCC2)c1
AC50 (A549): 35.7 µM (active)

O=C1C(=O)N(Cc2ccc(-c3ccccc3)cc2)c2ccc(OC(F)(F)F)cc21
IC50 [7]: 32 µM (inactive)

O=C(NCCc1ccc(F)cc1)c1coc(=O)c(Br)c1
EC50 (HEK293 [8]): > 59.7 µM (inactive)
EC50 (HEK293 [9]): > 59.7 µM (inactive)
IC50 [10]: 2.1 µM (active)
IC50 [11]: 5.3 µM (active)

COC(=O)C1=CN(Cc2ccc(F)cc2)C=C(C(=O)OC)C1c1cc(OC)c(OC)c(OC)c1
IC50 [12]: 1.65 µM (active)

CC(=O)Nc1ccc(Cl)c(C(=O)Nc2ccc(N3CCN(C(=O)OC(C)(C)C)CC3)cc2)c1
AC50 [13]: 0.00402 µM (active)
AC50 [14]: 0.00659 µM (active)
AC50 [15]: > 70 µM (inactive)

O=C(NO)c1ccc2ccccc2c1
IC50 [16]: 15.7 µM (inactive)
